Assay results from PMC11620503 (Antimicrobial Agents and Chemotherapy, 2024).
In brackets after ≈: the same amount, converted by molar mass. Read-outs that look alike come from different tables or passages of the source.

Experiments:
Experiment in all cases: MIC, broth microdilution
[1] = system: 207 Enterobacterales including carbapenem-resistant isolates; assay type: cell-based; details: for MIC90: read-out: MIC90
[2] = system: MEM-nonsusceptible Enterobacterales; assay type: cell-based; details: MEM-nonsusceptible Enterobacterales (127), cefiderocol 126 isolates; for MIC90: read-out: MIC90
[3] = system: serine-carbapenemase-producing isolates (Enterobacterales); assay type: cell-based; details: Enterobacterales with serine-carbapenemases (80); for MIC50 / MIC90: fixed concentration (μg/mL) in label; for MIC50: read-out: MIC50; for MIC90: read-out: MIC90
[4] = system: MBL-producing isolates (Enterobacterales); assay type: cell-based; details: Enterobacterales with metallo-carbapenemases (74), cefiderocol 73 isolates; for MIC90: read-out: MIC90
[5] = system: 55 isolates of A. baumannii; assay type: cell-based, Acinetobacter baumannii; details: Acinetobacter baumannii (55); for MIC90: read-out: MIC90
96 P. aeruginosa = assay type: cell-based, Pseudomonas aeruginosa; details: Pseudomonas aeruginosa (96); for MIC50 / MIC90: fixed concentration (μg/mL) in label; for MIC50: read-out: MIC50; for MIC90: read-out: MIC90
[6] = system: MEM-, imipenem/relebactam-, and ceftolozane/tazobactam-nonsusceptible P. aeruginosa; assay type: cell-based, Pseudomonas aeruginosa; details: for MIC50 / MIC90: Pseudomonas aeruginosa; for MIC50: read-out: MIC50; for MIC90: read-out: MIC90; for CLSI MIC interpretation I (intermediate) / CLSI MIC interpretation R (resistant) / CLSI MIC interpretation S (susceptible): marked c: breakpoints for β-lactam alone
[7] = system: MEM-nonsusceptible Enterobacterales with serine-carbapenemases; assay type: cell-based; details: MEM-nonsusceptible Enterobacterales with serine-carbapenemases (58)
[8] = system: MEM-nonsusceptible Enterobacterales with metallo-carbapenemases; assay type: cell-based; details: MEM-nonsusceptible Enterobacterales with metallo-carbapenemases (55), cefiderocol 54 isolates
[9] = fixed concentration (μg/mL) in label
[10] = Imipenem/relebactam-nonsusceptible Pseudomonas aeruginosa (43), fixed concentration (μg/mL) in label
[11] = MEM-nonsusceptible Pseudomonas aeruginosa (76), fixed concentration (μg/mL) in label
[12] = All Enterobacterales (207), cefiderocol 205 isolates, CLSI breakpoints, marked c: breakpoints for β-lactam alone, tigecycline: FDA breakpoints
[13] = CLSI breakpoints, marked c: breakpoints for β-lactam alone, tigecycline: FDA breakpoints
[14] = fixed concentration (μg/mL) in label, read-out: MIC50
[15] = CLSI breakpoints, marked c: breakpoints for β-lactam alone
[16] = Imipenem/relebactam-nonsusceptible Pseudomonas aeruginosa (43), CLSI breakpoints
[17] = MEM-nonsusceptible Pseudomonas aeruginosa (76), CLSI breakpoints
[18] = fixed concentration (μg/mL) in label, read-out: MIC90

`O=C(O)c1cn(C2CC2)c2cc(N3CCNCC3)c(F)cc2c1=O` [Ciprofloxacin] gave an MIC90 [1] of over 64 µg/mL, an MIC90 [2, 9] of over 64 µg/mL and an MIC50 [3] of 32 µg/mL (≈ 96.6 µM). The MIC90 [3] was over 64 µg/mL, the MIC90 [4, 9] was over 64 µg/mL and the MIC90 [5, 9] was over 64 µg/mL. It also gave an MIC50 (96 P. aeruginosa) of 16 µg/mL (≈ 48.3 µM), an MIC90 (96 P. aeruginosa) of 64 µg/mL (≈ 193 µM) and an MIC50 [6, 10] of 32 µg/mL. For the same compound, the MIC90 [6, 10] was 64 µg/mL, the MIC50 [6, 11] was 16 µg/mL (≈ 48.3 µM) and the MIC90 [6, 11] was 64 µg/mL (≈ 193 µM). For the same compound, the MIC50 ([6]; Table 2, broth microdilution) was 32 µg/mL (≈ 96.6 µM) and the MIC90 ([6]; Table 2, broth microdilution) was 64 µg/mL (≈ 193 µM).
With `C[C@H]1COc2c(N3CCN(C)CC3)c(F)cc3c(=O)c(C(=O)O)cn1c23` [Levofloxacin] the “CLSI MIC interpretation I (intermediate)” value [1, 12] was 3.9%, the “CLSI MIC interpretation R (resistant)” value [1, 12] was 72% and the “CLSI MIC interpretation S (susceptible)” value [1, 12] was 24.2%. For the same compound, the MIC50 ([1]; read-out: MIC50) was 16 µg/mL (≈ 44.3 µM), the MIC90 [1] was 64 µg/mL (≈ 177 µM) and the “CLSI MIC interpretation I (intermediate)” value [2, 13] was 2.4%. For the same compound, the “CLSI MIC interpretation R (resistant)” value [2, 13] was 79.5%, the “CLSI MIC interpretation S (susceptible)” value [2, 13] was 18.1% and the MIC50 [2, 14] was 32 µg/mL (≈ 88.6 µM). For the same compound, the MIC90 [2, 9] was 64 µg/mL (≈ 177 µM), the “CLSI MIC interpretation I (intermediate)” value [3, 13] was 1.3% and the “CLSI MIC interpretation R (resistant)” value [3, 13] was 71.3%. For the same compound, the “CLSI MIC interpretation S (susceptible)” value [3, 13] was 27.5%, the MIC50 [3] was 16 µg/mL (≈ 44.3 µM) and the MIC90 [3] was over 64 µg/mL. For the same compound, the “CLSI MIC interpretation I (intermediate)” value [4, 13] was 6.8%, the “CLSI MIC interpretation R (resistant)” value [4, 13] was 81.1% and the “CLSI MIC interpretation S (susceptible)” value [4, 13] was 12.2%. For the same compound, the MIC50 [4, 14] was 32 µg/mL (≈ 88.6 µM), the MIC90 [4, 9] was over 64 µg/mL and the “CLSI MIC interpretation I (intermediate)” value [5, 15] was 10.9%. The “CLSI MIC interpretation R (resistant)” value [5, 15] was 89.1%, the “CLSI MIC interpretation S (susceptible)” value [5, 15] was 0% and the MIC50 [5, 14] was 16 µg/mL (≈ 44.3 µM). The MIC90 [5, 9] was 64 µg/mL (≈ 177 µM), the “CLSI MIC interpretation I (intermediate)” value (96 P. aeruginosa; [15]) was 4.2% and the “CLSI MIC interpretation R (resistant)” value (96 P. aeruginosa; [15]) was 81.3%. The “CLSI MIC interpretation S (susceptible)” value (96 P. aeruginosa; [15]) was 14.6%, the MIC50 (96 P. aeruginosa) was 32 µg/mL (≈ 88.6 µM) and the MIC90 (96 P. aeruginosa) was 64 µg/mL (≈ 177 µM). The “CLSI MIC interpretation (%) I” value ([6]; I, intermediate (including susceptible dose-dependent), CLSI breakpoints, last subgroup of Table 2) was 2.2%, the “CLSI MIC interpretation I (intermediate)” value [6, 16] was 0% and the “CLSI MIC interpretation R (resistant)” value [6, 16] was 100%. For the same compound, the “CLSI MIC interpretation S (susceptible)” value [6, 16] was 0%, the “CLSI MIC interpretation I (intermediate)” value [6, 17] was 1.3% and the “CLSI MIC interpretation R (resistant)” value [6, 17] was 89.5%. For the same compound, the “CLSI MIC interpretation S (susceptible)” value [6, 17] was 9.2%, the MIC50 [6, 10] was 32 µg/mL and the MIC90 [6, 10] was over 64 µg/mL. It also gave an MIC50 [6, 11] of 32 µg/mL (≈ 88.6 µM), an MIC90 [6, 11] of over 64 µg/mL and an MIC50 ([6]; Table 2, broth microdilution) of 32 µg/mL (≈ 88.6 µM). The MIC90 ([6]; Table 2, broth microdilution) was 64 µg/mL (≈ 177 µM), the “CLSI MIC interpretation (%) R” value ([6]; R, resistant, CLSI breakpoints, last subgroup of Table 2) was 91.1% and the “CLSI MIC interpretation (%) S” value ([6]; S, susceptible, CLSI breakpoints, last subgroup of Table 2) was 6.7%. The “CLSI MIC interpretation I (intermediate)” value [7, 13] was 0%, the “CLSI MIC interpretation R (resistant)” value [7, 13] was 75.9% and the “CLSI MIC interpretation S (susceptible)” value [7, 13] was 24.1%. The MIC50 [7, 14] was 32 µg/mL (≈ 88.6 µM), the MIC90 [7, 18] was 64 µg/mL (≈ 177 µM) and the “CLSI MIC interpretation I (intermediate)” value [8, 13] was 5.5%. For the same compound, the “CLSI MIC interpretation S (susceptible)” value [8, 13] was 5.5%, the MIC50 [8, 14] was 32 µg/mL (≈ 88.6 µM) and the MIC90 [8, 18] was over 64 µg/mL.
